Assays:
[1] = system: K562 cells, a human proerythroblast cell line; test: Hemoglobin production in K562 cells (fluorescence of the porphyrin ring); assay type: cell-based; details: Homo sapiens, K562, 144 h; 6 μM test compound, 3 + 3 days incubation; non-stimulated state without compound = 100; read-out: amount of hemoglobin, % of control (6 μM)
Procedure: K562 cells (obtained from ATCC), which is a human proerythroblast cell line, were inoculated at a concentration of 1×10^5 cells/1 mL in each well of a 24-well plate, using complete medium (RPMI-1640 medium containing 10% bovine fetal serum), and 1 μL of a test compound at a 1000-fold concentration was added to each well. Subsequently, the cells were incubated for 3 days in a CO2 incubator (37° C., 5% CO2). The medium was exchanged, and the cells were further incubated for 3 days. The cells were collected and counted. Subsequently, the amount of hemoglobin produced in the cells was determined by adjusting the number of cells to 3×10^5 cells, and measuring the fluorescence of the porphyrin ring. That is, the cells collected by centrifugation were suspended in 500 μL of 2 M oxalic acid, and were heated to boil for 30 minutes. The cells were cooled, and then the fluorescence intensity was measured by using a fluorescence microplate reader (Spectra MAX GeminiEM; Molecular Devices Corp.) ([…]). The amount of hemoglobin in a non-stimulated state where no compound was added was designated as 100-, and the amount of hemoglobin (% of control) produced as induced by each of the compounds was determined.

[2] = system: HepG2 cells derived from human liver cancer; test: EPO production in HepG2 cells (EPO ELISA of culture supernatant); assay type: cell-based; details: Homo sapiens; for activity at 10 µM: HepG2, 48 h, final concentration 10 μM, non-stimulated state = 100%, read-out: enhancement of EPO production; for activity at 3 µM: HepG2, 3 μM test compound, 48 hrs, 4% oxygen, non-stimulated state without compound = 100%, read-out: amount of EPO production, % of control (3 μM)
Procedure: HepG2 cells derived from human liver cancer were inoculated in an amount of 5×10^4 cells per well on a 48-well plate, using minimum essential medium (MEM, Sigma-Aldrich Company) containing 10% bovine fetal serum. On the next day, the medium was exchanged with Dulbecco's modified eagle medium (DMEM (Sigma-Aldrich Company)) containing 10% bovine fetal serum without Phenol Red. Then, a test compound dissolved in DMSO was added thereto to obtain a final concentration of 3 μM or 10 μM, and the amount of medium was adjusted to 400 μL per well. The cells were incubated for 48 hrs in a CO2 incubator in which the oxygen concentration was adjusted to 4%, and then the culture supernatant was collected. The EPO concentration in the culture supernatant was immediately measured using an EPO ELISA kit (Roche Diagnostics GmbH). The method was carried out according to the operation manual.
The amount of EPO production in a non-stimulated state where no compounds were added, was designated as 100%, and the amount of EPO production (% of control) induced by each of the compounds was determined.

SMILES | activity at 6 µM [1] | activity at 10 µM [2] | activity at 3 µM [2]
CC(=O)N1c2ccc(C(N)=O)cc2C(Nc2ccc(-c3ncco3)cc2)CC1C (stereo not shown) [Compound 169, 1-Acetyl-2-methyl-4-{[4-(oxazol-2-yl)phenyl]amino}-1,2,3,4-tetrahydroquinoline-6-carboxamide] | 243% | 120% | –
CCOC(=O)c1ccc2c(c1)C(Nc1ccc(-c3ncco3)cc1)CC(C)N2C(C)=O (stereo not shown) [Compound 167, Ethyl 1-Acetyl-2-methyl-4-{[4-(oxazol-2-yl)phenyl]-amino}-1,2,3,4-tetrahydroquinoline-6-carboxylate] | 227% | 142% | –
CONC(=O)c1ccc2c(c1)C(Nc1ccc(N3CCOCC3)cc1)CC(C)N2C(C)=O (stereo not shown) [Compound 135, 1-Acetyl-4-[(4-morpholinophenyl)-amino]-N-methoxy-2-methyl-1,2,3,4-tetrahydroquinoline-6-carboxamide] | 178% | – | 124%
CC(=O)N1c2ccc(C(=O)NO)cc2C(Nc2ccc(Cl)cc2)CC1C (stereo not shown) [Compound 129, 1-Acetyl-4-[(4-chlorophenyl)-amino]-N-hydroxy-2-methyl-1,2,3,4-tetrahydroquinoline-6-carboxamide] | 136% | – | 125%
CC(=O)N1c2ccc(C(=O)Nc3cccnc3)cc2C(Nc2ccc(Cl)cc2)CC1C (stereo not shown) [Compound 131, 1-Acetyl-4-[(4-chlorophenyl)-amino]-2-methyl-N-(3-pyridyl)-1,2,3,4-tetrahydroquinoline-6-carboxamide] | 263% | – | 153%
CNC(=O)c1ccc2c(c1)C(Nc1ccc(C3CCCCC3)cc1)CC(C)N2C(C)=O (stereo not shown) [Compound 146, 1-Acetyl-4-[(4-cyclohexylphenyl)-amino]-N,2-dimethyl-1,2,3,4-tetrahydroquinoline-6-carboxamide] | 208% | – | 152%
CC(=O)N1c2ccc(C(=O)O)cc2C(Nc2cccc(N3CCOCC3)c2)CC1C (stereo not shown) [Compound 179, 1-Acetyl-2-methyl-4-[(3-morpholinophenyl)-amino]-1,2,3,4-tetrahydroquinoline-6-carboxylic acid] | 124% | – | 138%
CC(=O)N1c2ccc(C(N)=O)cc2C(Nc2cccc(N3CCOCC3)c2)CC1C (stereo not shown) [Compound 181, 1-Acetyl-2-methyl-4-[(3-morpholinophenyl)amino]-1,2,3,4-tetrahydroquinoline-6-carboxamide] | 382% | – | 162%
CC(=O)N1c2ccc(C(=O)O)cc2C(Nc2ccc(-c3ncco3)cc2)CC1C (stereo not shown) [Compound 168, 1-Acetyl-2-methyl-4-{[4-(oxazol-2-yl)phenyl]-amino}-1,2,3,4-tetrahydroquinoline-6-carboxylic acid] | 204% | – | 144%
CC(=O)N1c2ccc(C(=O)O)cc2C(Nc2ccc(-c3csc(C)n3)cc2)CC1C (stereo not shown) [Compound 163, 1-Acetyl-2-methyl-4-{[4-(2-methylthiazol-4-yl)-phenyl]amino}-1,2,3,4-tetrahydroquinoline-6-carboxylic acid] | 172% | – | 128%
CCOC(=O)c1ccc2c(c1)C(Nc1ccc(-c3csc(C)n3)cc1)CC(C)N2C(C)=O (stereo not shown) [Compound 162, Ethyl 1-Acetyl-2-methyl-4-{[4-(2-methylthiazol-4-yl)-phenyl]amino}-1,2,3,4-tetrahydroquinoline-6-carboxylate] | 316% | – | 284%
